# Activity calls are given as the source filed them.
# Experiments:
# Fatty acid synthase [1] = biological target: T1, Fatty acid synthase (Homo sapiens, UniProt P49327); test: inhibition of human FAS-TE enzyme activity – biochemical, endpoint fluorescence intensity, uHTS hits, dose response (AID 624327); assay type: functional;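 note: fluorescence from hydrolysis of an O-methyl fluorescein acyl ester substrate by the enzyme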
# Fatty acid synthase [2] = biological target: T1, Fatty acid synthase; test: inhibition of human FAS-TE enzyme activity – biochemical, kinetic fluorescence intensity, dose response (AID 624326); assay type: functional;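 note: rate of fluorescence rise from hydrolysis of a fluorogenic O-methyl fluorescein ester substrate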
# [3] = biological target: T2, Short transient receptor potential channel 4 (Mus musculus, UniProt Q9QUQ5); test: block of DAMGO-driven TRPC4 calcium entry – cell-based, HEK293 TRPC4/mu-opioid, Fluo-4 calcium, dose response (AID 434942); assay type: functional;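 note: potency of inhibitors blocking the TRPC4 calcium response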
# T2 sequence (Q9QUQ5 whole entry): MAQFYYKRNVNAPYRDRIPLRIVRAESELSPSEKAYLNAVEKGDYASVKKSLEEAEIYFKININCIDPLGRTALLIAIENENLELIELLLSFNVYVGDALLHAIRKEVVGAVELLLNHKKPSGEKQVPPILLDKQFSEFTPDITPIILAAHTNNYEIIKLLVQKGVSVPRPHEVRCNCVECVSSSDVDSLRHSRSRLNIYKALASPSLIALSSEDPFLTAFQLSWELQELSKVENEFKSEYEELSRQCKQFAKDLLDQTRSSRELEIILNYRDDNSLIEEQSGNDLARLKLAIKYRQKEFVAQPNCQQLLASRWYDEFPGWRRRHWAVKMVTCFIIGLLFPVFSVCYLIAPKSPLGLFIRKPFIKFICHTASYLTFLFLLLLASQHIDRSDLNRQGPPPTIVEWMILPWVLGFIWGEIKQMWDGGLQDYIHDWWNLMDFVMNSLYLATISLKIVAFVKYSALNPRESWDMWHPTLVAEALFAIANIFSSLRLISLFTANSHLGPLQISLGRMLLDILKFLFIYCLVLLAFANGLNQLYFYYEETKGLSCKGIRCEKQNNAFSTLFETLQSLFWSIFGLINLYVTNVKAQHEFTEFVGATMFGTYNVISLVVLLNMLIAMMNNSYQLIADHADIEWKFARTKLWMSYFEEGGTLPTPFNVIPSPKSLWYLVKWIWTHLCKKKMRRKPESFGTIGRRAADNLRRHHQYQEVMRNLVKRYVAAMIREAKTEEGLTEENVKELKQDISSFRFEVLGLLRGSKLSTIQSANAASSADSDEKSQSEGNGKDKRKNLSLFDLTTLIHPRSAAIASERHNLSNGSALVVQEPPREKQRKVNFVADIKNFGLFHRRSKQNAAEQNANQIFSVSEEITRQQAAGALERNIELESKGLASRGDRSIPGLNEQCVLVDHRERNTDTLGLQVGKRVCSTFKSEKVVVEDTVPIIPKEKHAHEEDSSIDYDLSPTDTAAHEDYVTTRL
# [4] = viability of uninfected HEp-2 cells – cell-based, HTS, cytotoxicity control for RSV inhibitor project, dose response (AID 2410); assay type: functional; settings: human respiratory syncytial virus
# [5] = Trypanosoma cruzi growth suppression in host cells – NIH3T3 host cells, beta-gal luminescence, confirmation (AID 2044); assay type: functional, cell-based;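 note: intracellular parasites grown in NIH/3T3 mouse fibroblasts as host cells; luminescent beta-galactosidase reporter signal from transgenic T. cruzi replicating inside host cells; inhibitors lower the luminescence signal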
# [6] = NIH3T3 cell viability loss – ATP luminescence, mouse fibroblasts, counter-screen, dose response (AID 2010); assay type: functional, cell-based;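 note: cells exposed to compound for about 90 hours before reading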
# INS1 = test: INS-1E survival protection against cytokine death – cell-based, luminescence, retest, dose response (AID 449756); assay type: functional; settings: Rattus norvegicus;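 note: cell death triggered by IL-1 beta plus TNF-alpha plus IFN-gamma mixture; protective hits raise ATP signal compared with cytokine alone wells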
# [7] = microbe, parasite or virus in culture; assay type: functional; settings: Mycobacterium tuberculosis
# cells [8] = assay type: functional, cell-based
# cells [9] = assay type: functional, cell-based; remark: listed apart in the source
# [10] = biological target: Heat shock protein HSP 90-alpha (Homo sapiens, UniProt P07900); assay type: functional, organism-based
# Aminopeptidase N = biological target: T3, Aminopeptidase N (Plasmodium falciparum FcB1/Columbia, UniProt O96935); test: malaria alanyl aminopeptidase activity blockers – biochemical, fluorogenic H-Leu-NHMec substrate, 1536-well (AID 1445); parameters: species or system Plasmodium falciparum 3D7, 3D7
# T3 sequence (O96935 whole entry): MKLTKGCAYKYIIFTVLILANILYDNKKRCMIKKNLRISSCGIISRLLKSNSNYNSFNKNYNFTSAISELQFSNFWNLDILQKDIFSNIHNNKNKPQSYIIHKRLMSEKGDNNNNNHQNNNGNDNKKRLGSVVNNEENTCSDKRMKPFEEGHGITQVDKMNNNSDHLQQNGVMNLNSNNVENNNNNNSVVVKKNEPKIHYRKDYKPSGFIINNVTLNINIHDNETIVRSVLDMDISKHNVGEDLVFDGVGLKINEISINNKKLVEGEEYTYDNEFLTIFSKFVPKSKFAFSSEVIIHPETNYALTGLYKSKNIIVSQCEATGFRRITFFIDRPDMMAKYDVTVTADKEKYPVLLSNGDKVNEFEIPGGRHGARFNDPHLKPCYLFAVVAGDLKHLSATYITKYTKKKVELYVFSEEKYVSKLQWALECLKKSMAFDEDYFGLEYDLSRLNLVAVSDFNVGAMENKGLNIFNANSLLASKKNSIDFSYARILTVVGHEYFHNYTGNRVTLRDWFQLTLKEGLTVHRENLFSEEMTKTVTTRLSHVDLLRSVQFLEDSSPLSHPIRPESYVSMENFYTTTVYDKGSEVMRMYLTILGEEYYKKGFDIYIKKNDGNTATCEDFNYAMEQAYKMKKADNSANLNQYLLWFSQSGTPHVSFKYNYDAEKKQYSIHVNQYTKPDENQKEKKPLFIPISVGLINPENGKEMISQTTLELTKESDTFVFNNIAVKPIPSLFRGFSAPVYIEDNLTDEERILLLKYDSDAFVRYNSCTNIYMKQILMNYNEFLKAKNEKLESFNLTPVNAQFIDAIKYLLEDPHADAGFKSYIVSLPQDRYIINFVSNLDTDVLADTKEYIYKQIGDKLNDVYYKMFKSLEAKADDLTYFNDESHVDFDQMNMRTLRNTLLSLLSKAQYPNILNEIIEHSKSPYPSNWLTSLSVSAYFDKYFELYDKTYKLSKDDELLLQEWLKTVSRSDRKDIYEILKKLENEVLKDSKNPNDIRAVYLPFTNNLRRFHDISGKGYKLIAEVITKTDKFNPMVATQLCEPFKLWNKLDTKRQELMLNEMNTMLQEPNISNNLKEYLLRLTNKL
# Leucine aminopeptidase = biological target: T4, Leucine aminopeptidase (Plasmodium falciparum 3D7, UniProt Q8IL11); test: P. falciparum M17LAP inhibitors, primary screen, biochemical, fluorogenic H-Leu-NHMec substrate, 1536-well (AID 1619); assay type: functional
# T4 sequence (Q8IL11 whole entry): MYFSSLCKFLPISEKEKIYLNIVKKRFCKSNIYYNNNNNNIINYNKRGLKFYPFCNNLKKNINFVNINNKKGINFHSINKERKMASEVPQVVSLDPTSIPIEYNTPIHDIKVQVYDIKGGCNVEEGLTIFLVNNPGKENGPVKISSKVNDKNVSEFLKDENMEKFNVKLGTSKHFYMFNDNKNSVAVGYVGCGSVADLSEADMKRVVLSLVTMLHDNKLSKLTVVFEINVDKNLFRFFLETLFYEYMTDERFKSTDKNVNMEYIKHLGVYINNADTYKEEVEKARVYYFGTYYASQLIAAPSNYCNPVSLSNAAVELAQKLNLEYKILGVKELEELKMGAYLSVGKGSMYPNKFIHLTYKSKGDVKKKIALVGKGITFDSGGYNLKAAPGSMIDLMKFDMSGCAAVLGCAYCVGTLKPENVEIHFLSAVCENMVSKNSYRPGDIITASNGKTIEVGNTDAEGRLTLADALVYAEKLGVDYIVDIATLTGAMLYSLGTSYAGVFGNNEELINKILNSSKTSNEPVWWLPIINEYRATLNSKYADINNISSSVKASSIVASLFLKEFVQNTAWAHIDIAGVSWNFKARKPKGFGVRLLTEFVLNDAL
# P388/ADR = test: cells; assay type: functional; settings: Mus musculus
# SN12K1 = test: cells; assay type: functional; settings: Homo sapiens
# P388 = test: cells; assay type: functional; settings: Mus musculus
# Cytochrome P450 2C19 = Cytochrome P450 2C19 (Homo sapiens, UniProt P33261); test: Cytochrome panel assay with activity outcomes. Panel member name: p450-cyp2c19 Compounds with AC50 equal or less than 10 uM are considered active; assay type: functional
# Cytochrome P450 2C19, sequence (P33261 whole entry): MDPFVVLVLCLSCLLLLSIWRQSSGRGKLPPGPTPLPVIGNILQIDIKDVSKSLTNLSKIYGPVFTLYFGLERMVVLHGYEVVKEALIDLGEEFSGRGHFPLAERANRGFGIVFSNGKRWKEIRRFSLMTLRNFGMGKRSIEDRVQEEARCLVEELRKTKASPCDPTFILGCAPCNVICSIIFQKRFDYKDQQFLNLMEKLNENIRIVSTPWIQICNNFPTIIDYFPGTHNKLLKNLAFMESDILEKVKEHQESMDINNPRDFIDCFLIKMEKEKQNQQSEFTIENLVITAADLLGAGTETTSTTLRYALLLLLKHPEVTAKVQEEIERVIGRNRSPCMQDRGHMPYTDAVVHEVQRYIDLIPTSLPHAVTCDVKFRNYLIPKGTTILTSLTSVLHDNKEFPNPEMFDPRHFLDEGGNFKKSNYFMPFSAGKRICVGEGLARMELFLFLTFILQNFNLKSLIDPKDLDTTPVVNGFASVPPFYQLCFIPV
# Cytochrome P450 2D6 = Cytochrome P450 2D6 (Homo sapiens, UniProt P10635);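 note: CYP2D6 member of a cytochrome P450 panel assay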
# Cytochrome P450 2D6, sequence (P10635 whole entry): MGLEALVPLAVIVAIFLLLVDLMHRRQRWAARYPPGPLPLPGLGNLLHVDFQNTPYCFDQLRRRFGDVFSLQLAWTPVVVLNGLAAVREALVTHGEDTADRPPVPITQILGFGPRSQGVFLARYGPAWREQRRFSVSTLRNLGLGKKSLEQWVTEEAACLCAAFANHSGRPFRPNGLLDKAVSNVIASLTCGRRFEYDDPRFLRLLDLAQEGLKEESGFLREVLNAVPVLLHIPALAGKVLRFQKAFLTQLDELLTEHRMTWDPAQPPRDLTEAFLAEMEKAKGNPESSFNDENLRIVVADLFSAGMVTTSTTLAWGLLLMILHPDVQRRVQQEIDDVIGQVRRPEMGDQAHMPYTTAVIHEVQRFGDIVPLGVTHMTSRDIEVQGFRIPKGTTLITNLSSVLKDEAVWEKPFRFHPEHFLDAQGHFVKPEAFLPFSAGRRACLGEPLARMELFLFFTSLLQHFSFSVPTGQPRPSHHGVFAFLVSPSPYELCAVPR
# Cytochrome P450 3A4 = Cytochrome P450 3A4 (Homo sapiens, UniProt P08684);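 note: CYP3A4 tested as one member of a cytochrome P450 panel screen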
# Cytochrome P450 3A4, sequence (P08684 whole entry): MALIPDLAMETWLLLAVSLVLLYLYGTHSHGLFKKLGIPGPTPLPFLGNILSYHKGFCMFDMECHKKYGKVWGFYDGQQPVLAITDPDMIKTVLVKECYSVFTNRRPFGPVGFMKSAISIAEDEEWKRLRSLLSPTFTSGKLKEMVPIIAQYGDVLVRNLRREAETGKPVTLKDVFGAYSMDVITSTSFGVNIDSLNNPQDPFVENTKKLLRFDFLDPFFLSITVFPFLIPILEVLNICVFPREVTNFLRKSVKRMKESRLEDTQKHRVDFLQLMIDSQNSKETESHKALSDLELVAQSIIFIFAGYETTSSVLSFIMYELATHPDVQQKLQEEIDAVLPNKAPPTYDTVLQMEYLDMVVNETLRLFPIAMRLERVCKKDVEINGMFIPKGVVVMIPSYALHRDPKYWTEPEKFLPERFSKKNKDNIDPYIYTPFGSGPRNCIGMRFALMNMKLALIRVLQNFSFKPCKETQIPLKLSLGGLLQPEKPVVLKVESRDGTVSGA
# T1 sequence (P49327 whole entry): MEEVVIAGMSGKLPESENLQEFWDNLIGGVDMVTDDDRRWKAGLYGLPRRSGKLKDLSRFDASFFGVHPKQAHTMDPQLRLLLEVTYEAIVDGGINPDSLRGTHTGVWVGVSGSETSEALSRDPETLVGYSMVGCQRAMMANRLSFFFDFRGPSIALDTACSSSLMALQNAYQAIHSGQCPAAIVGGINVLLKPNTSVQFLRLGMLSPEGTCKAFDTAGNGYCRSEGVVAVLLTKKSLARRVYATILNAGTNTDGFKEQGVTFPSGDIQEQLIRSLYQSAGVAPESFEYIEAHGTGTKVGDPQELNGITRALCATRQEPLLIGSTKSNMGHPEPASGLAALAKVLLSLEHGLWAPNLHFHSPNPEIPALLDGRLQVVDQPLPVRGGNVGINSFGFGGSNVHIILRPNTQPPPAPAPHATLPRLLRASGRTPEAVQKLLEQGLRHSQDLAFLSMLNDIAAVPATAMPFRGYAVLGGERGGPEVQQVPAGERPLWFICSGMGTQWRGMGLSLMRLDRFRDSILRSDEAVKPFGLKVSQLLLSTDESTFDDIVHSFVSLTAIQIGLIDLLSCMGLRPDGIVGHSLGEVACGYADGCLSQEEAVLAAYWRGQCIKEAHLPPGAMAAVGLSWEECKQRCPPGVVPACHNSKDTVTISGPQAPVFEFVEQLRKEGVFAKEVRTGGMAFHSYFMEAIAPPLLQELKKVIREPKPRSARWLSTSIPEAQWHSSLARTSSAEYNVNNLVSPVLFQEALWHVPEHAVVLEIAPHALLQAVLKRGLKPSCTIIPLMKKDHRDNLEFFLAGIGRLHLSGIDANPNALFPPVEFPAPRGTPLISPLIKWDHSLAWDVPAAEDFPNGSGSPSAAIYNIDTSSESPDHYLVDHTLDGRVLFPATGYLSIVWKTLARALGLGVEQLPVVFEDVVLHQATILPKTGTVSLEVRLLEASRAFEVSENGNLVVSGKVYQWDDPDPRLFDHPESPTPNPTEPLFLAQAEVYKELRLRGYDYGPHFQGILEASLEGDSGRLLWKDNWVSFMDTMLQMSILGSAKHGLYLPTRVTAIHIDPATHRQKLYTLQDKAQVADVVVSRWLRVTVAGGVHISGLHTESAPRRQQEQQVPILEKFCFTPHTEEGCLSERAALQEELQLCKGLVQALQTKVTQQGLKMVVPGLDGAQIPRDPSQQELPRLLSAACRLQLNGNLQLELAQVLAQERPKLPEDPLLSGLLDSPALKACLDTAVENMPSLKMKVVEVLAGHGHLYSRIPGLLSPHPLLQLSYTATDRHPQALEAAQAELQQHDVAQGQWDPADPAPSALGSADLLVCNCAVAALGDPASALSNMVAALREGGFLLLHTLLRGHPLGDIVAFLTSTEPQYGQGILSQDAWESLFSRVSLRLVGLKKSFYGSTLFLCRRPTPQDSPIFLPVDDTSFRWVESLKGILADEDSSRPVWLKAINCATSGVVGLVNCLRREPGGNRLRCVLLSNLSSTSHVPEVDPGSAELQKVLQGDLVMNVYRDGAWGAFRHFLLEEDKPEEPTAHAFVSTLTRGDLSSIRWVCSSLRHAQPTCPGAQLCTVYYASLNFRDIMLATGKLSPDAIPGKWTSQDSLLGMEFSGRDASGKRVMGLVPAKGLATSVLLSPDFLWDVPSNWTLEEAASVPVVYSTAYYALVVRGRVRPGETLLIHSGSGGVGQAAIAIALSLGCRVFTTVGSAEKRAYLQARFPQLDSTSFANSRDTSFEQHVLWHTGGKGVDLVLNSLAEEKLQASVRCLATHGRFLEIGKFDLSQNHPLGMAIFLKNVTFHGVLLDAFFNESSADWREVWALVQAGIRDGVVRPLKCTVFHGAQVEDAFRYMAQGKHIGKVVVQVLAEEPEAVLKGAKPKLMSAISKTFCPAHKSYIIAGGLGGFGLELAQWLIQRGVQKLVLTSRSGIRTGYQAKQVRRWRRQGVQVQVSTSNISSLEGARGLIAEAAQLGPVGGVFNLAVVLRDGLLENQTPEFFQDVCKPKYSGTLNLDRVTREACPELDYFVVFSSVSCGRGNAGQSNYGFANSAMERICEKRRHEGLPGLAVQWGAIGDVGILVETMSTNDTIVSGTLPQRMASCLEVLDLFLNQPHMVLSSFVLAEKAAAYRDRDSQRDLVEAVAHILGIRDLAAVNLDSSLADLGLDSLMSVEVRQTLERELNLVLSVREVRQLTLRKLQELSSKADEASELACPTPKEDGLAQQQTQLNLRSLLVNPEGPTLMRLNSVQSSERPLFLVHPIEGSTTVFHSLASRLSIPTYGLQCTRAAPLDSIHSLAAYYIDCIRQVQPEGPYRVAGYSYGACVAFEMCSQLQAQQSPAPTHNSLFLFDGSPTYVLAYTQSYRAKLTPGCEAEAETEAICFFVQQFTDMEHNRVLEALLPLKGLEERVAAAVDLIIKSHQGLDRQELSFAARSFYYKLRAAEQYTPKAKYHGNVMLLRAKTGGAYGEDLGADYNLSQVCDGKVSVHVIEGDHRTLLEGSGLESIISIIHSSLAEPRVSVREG
compound,measurement,setting,value
N#Cc1cc2nc(O)c(O)nc2cc1[N+](=O)[O-],IC50,Fatty acid synthase [1],19.6 µM (active)
same,IC50,Fatty acid synthase [2],14.8 µM (active)
Cc1nc(Cl)c(Cl)n1CCOc1ccccc1,EC50,[3],5.31 µM (active)
same,CC50,[4],20.9 µM (active)
Cc1ccc(C(CNS(=O)(=O)c2ccc([N+](=O)[O-])cc2)N2CCN(C)CC2)cc1 (stereo not given),EC50,[3],0.0093 µM (active)
same,EC50,[5],1.65 µM (active)
same,EC50,[6],> 60 µM (not active)
Cc1ccc(-n2cccc2C(=S)N=P(N(C)C)(N(C)C)N(C)C)cc1,EC50,[5],0.148 µM (active)
same,EC50,[6],> 30 µM (not active)
same,AC50,INS1,6.81 µM (active)
same,CC50,[7],> 40 µM (active)
CCOC(=O)c1c(S(=O)(=O)N2CCC(C)CC2)c(C)n(C)c1C,EC50,cells [8],> 350 µM (not active)
same,EC50,cells [9],> 350 µM (not active)
CCCOc1ccc(C(=O)NC(=S)NCc2cccnc2)cc1,CC50,[7],> 40 µM (active)
CC1CCCN(CCCN2C(=O)C3C(C(=O)Nc4ccc(Cl)cc4)C4C=CC3(O4)C2C(=O)NC2CCCCC2)C1 (stereo not given),EC50,[3],0.335 µM (active)
CCn1cc(C(=O)NCc2ccc(C)cc2)c(=O)c2cc(S(=O)(=O)N(C)C)ccc21,IC50,Fatty acid synthase [1],11.4 µM (active)
same,IC50,Fatty acid synthase [2],11.1 µM (active)
Cc1cccc(C2Nc3ccccc3C(=O)N2NC(=O)c2ccc([N+](=O)[O-])cc2)n1 (stereo not given),IC50,Fatty acid synthase [1],10.4 µM (active)
same,IC50,Fatty acid synthase [2],12.8 µM (active)
COc1ccc2c(c1)OC[C@H]1[C@H]2N2C(=O)c3cc(OC)ccc3NC(=O)[C@@]2(C)[C@H]1c1ccccc1,IC50,Fatty acid synthase [1],12.7 µM (active)
same,IC50,Fatty acid synthase [2],13.7 µM (active)
same,AC50,[10],16.1 µM (active)
O=C(O)c1ccc(/C=C/c2ccc3cccc(O)c3n2)cc1,IC50,Aminopeptidase N,13 µM (active)
same,IC50,Leucine aminopeptidase,55.5 µM (active)
O=C(CN1C(=O)C2C3CC(C(Br)C3Br)C2C1=O)N1CCOCC1 (stereo not given),IC50,Leucine aminopeptidase,47.5 µM (active)
COc1cccc(NC(=O)c2cc([N+](=O)[O-])ccc2NC(=O)CNCC2CCCO2)c1 (stereo not given),IC50,Fatty acid synthase [1],12.3 µM (active)
same,IC50,Fatty acid synthase [2],13.1 µM (active)
c1ccc2c(c1)CCN(c1nc3cc4c(cc3s1)OCCO4)C2,CC50,[7],> 40 µM (active)
COc1ccc(Nc2nnc(SCC(=O)N3CCCC3)s2)cc1,IC50,Leucine aminopeptidase,10.1 µM (active)
Cc1ccc(CNc2ccc3c(c2)nc(C)n3C)cc1,EC50,cells [8],34.6 µM (active)
same,EC50,cells [9],> 350 µM (not active)
CN(C)C=O.O=C(COc1cccc(Cl)c1)Nc1nc(-c2ccc(S(=O)(=O)N3CCOCC3)cc2)cs1,IC50,Fatty acid synthase [1],4.49 µM (active)
same,IC50,Fatty acid synthase [2],5.53 µM (active)
CCn1c(SCC(=O)Nc2ncc(C(F)(F)F)cc2Cl)nnc1-c1ccccc1,IC50,Fatty acid synthase [1],5.96 µM (active)
same,IC50,Fatty acid synthase [2],4.08 µM (active)
O=C(O)C1CC=CCC1C(=O)Nc1cccc(F)c1 (stereo not given),IC50,Leucine aminopeptidase,14.6 µM (active)
O=C(NCCCN1CCN(c2ccccc2F)CC1)Nc1ccccc1[N+](=O)[O-],EC50,cells [8],> 350 µM (not active)
same,EC50,cells [9],> 350 µM (not active)
COc1ccc(SC[C@H](Cc2ccccc2)N2CCN(C)CCC2=O)cc1,EC50,[3],1.33 µM (active)
CC(C)=CC(=O)OC1C2C(C)C(=O)OC2C(O)C(C)C2C=CC(=O)C21C (stereo not given),GI50,P388/ADR,0.615 µM (active)
same,GI50,SN12K1,2.39 µM (inactive)
same,GI50,P388,0.627 µM (active)
CC(C)CCCCCCCCCCCCC(=O)NCC(=O)NC1C(C)OC(Nc2ncnc3c2ncn3C)C(O)C1O (stereo not given),GI50,P388/ADR,> 100 µM (inactive)
same,GI50,SN12K1,7.66 µM (inactive)
same,GI50,P388,6.03 µM (inactive)
CN1OC(=O)N(C)C1c1ccccc1 (stereo not given),GI50,P388/ADR,> 100 µM (inactive)
same,GI50,SN12K1,> 100 µM (inactive)
same,GI50,P388,> 100 µM (inactive)
CCCCOC(=O)NS(=O)(=O)c1sc(CC(C)C)cc1-c1ccc(Cn2c(CC)nc3c(C)cc(C)nc32)cc1,AC50,Cytochrome P450 2C19; read-out: AC50,15.8 µM (inconclusive)
same,AC50,Cytochrome P450 2D6,15.8 µM (inconclusive)
same,CC50,[7],20.3 µM (active)
O=C(Cn1nc2ccccc2n1)N/N=C/c1cc(Cl)cc([N+](=O)[O-])c1O,IC50,Aminopeptidase N,45.2 µM (active)
same,IC50,Fatty acid synthase [1],8.31 µM (active)
same,IC50,Fatty acid synthase [2],6.5 µM (active)
Oc1ccc(/C=N/NC(=S)NC2CC3CCC2C3)cc1 (stereo not given),EC50,cells [8],> 350 µM (not active)
same,EC50,cells [9],> 350 µM (not active)
CC1=NNC(=O)C1CCC(=O)N/N=C/c1ccc(Cl)cc1 (stereo not given),IC50,Leucine aminopeptidase,52.6 µM (active)
O=c1cc(CSc2ccccc2)[nH]c(=S)[nH]1,AC50,Cytochrome P450 2C19,inconclusive
same,IC50,Leucine aminopeptidase,12.5 µM (active)
same,AC50,Cytochrome P450 3A4,28.2 µM (inconclusive)
